Assay results taken from PubChem BioAssay (NCI).
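Cells were grown in 96-well plates and exposed to each compound for 48 hours at five concentrations; endpoints were interpolated linearly between bracketing concentrations, or set to the highest concentration if not reached. Here, GI50 denotes the concentration required for 50% inhibition of growth. TGI denotes the concentration required for complete inhibition of growth.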

Assays:
Experiment in all cases: NCI tumour cell line growth inhibition, 48 h
[1] = tested on: UO-31 renal
[2] = tested on: CAKI-1 renal
[3] = tested on: A498 renal
[4] = tested on: COLO 205 colon
[5] = tested on: HCT-116 colon
[6] = tested on: MOLT-4 leukemia
[7] = tested on: SNB-19 CNS
[8] = tested on: SF-268 CNS
[9] = tested on: KM12 colon
[10] = tested on: HL-60(TB) leukemia
[11] = tested on: IGROV1 ovarian
[12] = tested on: K-562 leukemia
[13] = tested on: TK-10 renal
[14] = tested on: NCI-H460 lung
[15] = tested on: ACHN renal
[16] = tested on: T-47D breast
[17] = tested on: RPMI-8226 leukemia
[18] = tested on: CCRF-CEM leukemia
[19] = tested on: SN12C renal
[20] = tested on: MCF7 breast
[21] = tested on: UACC-257 melanoma
[22] = tested on: BT-549 breast
[23] = tested on: HOP-92 NSCLC
[24] = tested on: SF-295 CNS
[25] = tested on: OVCAR-8 ovarian
[26] = tested on: EKVX NSCLC
[27] = tested on: 786-0 renal
[28] = tested on: A549 NSCLC
[29] = tested on: SF-539 CNS
[30] = tested on: DU-145 prostate
[31] = tested on: SK-MEL-5 melanoma
[32] = tested on: RXF 393 renal
[33] = tested on: SNB-75 CNS
[34] = tested on: OVCAR-4 ovarian
[35] = tested on: HS 578T breast
[36] = tested on: NCI/ADR-RES ovarian
[37] = tested on: SK-MEL-28 melanoma
[38] = tested on: PC-3 prostate
[39] = tested on: NCI-H226 lung
[40] = tested on: HCC-2998 colon
[41] = tested on: NCI-H23 lung
[42] = tested on: HCT-15 colon
[43] = tested on: MDA-MB-435
[44] = tested on: HOP-62 NSCLC
[45] = tested on: NCI-H522 lung
[46] = tested on: OVCAR-3 ovarian
[47] = tested on: UACC-62 melanoma
[48] = tested on: HT29 colon
[49] = tested on: U251 CNS
[50] = tested on: MDA-MB-231 breast
[51] = tested on: LOX IMVI melanoma
[52] = tested on: M14 melanoma
[53] = tested on: SW-620 colon
[54] = tested on: SK-MEL-2 melanoma
[55] = tested on: SK-OV-3 ovarian
[56] = tested on: OVCAR-5 ovarian

## Cc1ccc2c(c1)n([O-])c(C(F)(F)F)c(C(=O)c1ccco1)[n+]2=O
[1]
  GI50: 0.319 µM
  TGI: 1.81 µM
[2]
  GI50: 0.0845 µM
  TGI: 0.448 µM
[3]
  GI50: 1.21 µM
  TGI: 3.21 µM
[4]
  GI50: 0.816 µM
  TGI: 2.06 µM
[5]
  GI50: 0.994 µM
  TGI: 12.7 µM
[6]
  GI50: 14.6 µM
  TGI: 50 µM
[7]
  GI50: 1.47 µM
  TGI: 6.82 µM
[8]
  GI50: 0.42 µM
  TGI: 2.48 µM
[9]
  GI50: 0.667 µM
  TGI: 2.49 µM
[10]
  GI50: 1.09 µM
  TGI: 21.8 µM
[11]
  GI50: 0.205 µM
  TGI: 9 µM
[12]
  GI50: 1.1 µM
  TGI: 34.5 µM
[13]
  GI50: 1.94 µM
  TGI: 8.74 µM
[14]
  GI50: 0.262 µM
  TGI: 1.52 µM
[15]
  GI50: 0.217 µM
  TGI: 1 µM
[16]
  GI50: 0.472 µM
  TGI: 4.18 µM
[17]
  GI50: 0.357 µM
  TGI: 2.69 µM
[18]
  GI50: 0.0743 µM
  TGI: 0.859 µM
[19]
  GI50: 0.833 µM
  TGI: 2.5 µM
[20]
  GI50: 0.762 µM
  TGI: 4.9 µM
[21]
  GI50: 0.924 µM
  TGI: 3.12 µM
[22]
  GI50: 0.627 µM
  TGI: 4.21 µM
[23]
  GI50: 0.0556 µM
  TGI: 0.445 µM
[24]
  GI50: 0.457 µM
  TGI: 1.97 µM
[25]
  GI50: 0.684 µM
  TGI: 2.64 µM
[26]
  GI50: 0.719 µM
  TGI: 2.88 µM
[27]
  GI50: 1.22 µM
  TGI: 6.59 µM
[28]
  GI50: 0.965 µM
  TGI: 3.35 µM
[29]
  GI50: 0.918 µM
  TGI: 2.67 µM
[30]
  GI50: 0.564 µM
  TGI: 1.33 µM
[31]
  GI50: 0.556 µM
  TGI: 1.3 µM
[32]
  GI50: 0.622 µM
  TGI: 2.91 µM
[33]
  GI50: 1.4 µM
  TGI: 6.07 µM
[34]
  GI50: 0.627 µM
  TGI: 1.89 µM
[35]
  GI50: 1.2 µM
  TGI: 7.73 µM
[36]
  GI50: 0.74 µM
  TGI: 3.55 µM
[37]
  GI50: 4.16 µM
  TGI: 23.6 µM
[38]
  GI50: 0.306 µM
  TGI: 4.82 µM
[39]
  GI50: 0.755 µM
  TGI: 2.09 µM
[40]
  GI50: 0.716 µM
  TGI: 1.67 µM
[41]
  GI50: 0.433 µM
  TGI: 1.52 µM
[42]
  GI50: 0.562 µM
  TGI: 7.62 µM
[43]
  GI50: 0.744 µM
  TGI: 2.65 µM
[44]
  GI50: 0.996 µM
  TGI: 3.85 µM
[45]
  GI50: 1.42 µM
  TGI: 12.5 µM
[46]
  GI50: 0.573 µM
  TGI: 1.75 µM
[47]
  GI50: 0.723 µM
  TGI: 1.61 µM
[48]
  GI50: 2.07 µM
  TGI: 20.7 µM
[49]
  GI50: 0.632 µM
  TGI: 5.15 µM
[50]
  GI50: 0.929 µM
  TGI: 2.65 µM
[51]
  GI50: 0.176 µM
  TGI: 0.93 µM
[52]
  GI50: 1.3 µM
  TGI: 6.55 µM
[53]
  GI50: 0.966 µM
  TGI: 8.15 µM
[54]
  GI50: 4.4 µM
  TGI: 34.7 µM
[55]
  GI50: 1.59 µM
  TGI: 7.39 µM
[56]
  GI50: 1.72 µM
  TGI: 9.03 µM
